From patent US20040242671A1, “Use of 2-oxo-1-pyrrolidine derivatives for the preparation of a drug” (priority 2001, published 2004) come the findings set out here.

Molecules are shown by their SMILES.

Experiment [1] relates to MPTP-lesioned marmoset model of Parkinson's disease. Nature of the experiment: L-DOPA-induced dyskinesia score, MPTP-lesioned marmoset (Example 1). The class given is in vivo, marmosets (Callithrix jacchus). To be noted: for Dyskinesia: first hour post drug administration, vs L-DOPA + vehicle. The protocol: (§1) This study was designed to investigate whether levetiracetam has anti-dyskinetic activity in the 1-methyl-4-phenyl-1,2,3,6-tetrahydropyridine (MPTP)-lesioned marmoset model of Parkinson's disease. The effect of levetiracetam on L-3,4-dihydroxyphenylalanine (L-DOPA)-induced dyskinesias and alleviation of parkinsonism symptoms was investigated.
(§2) The study was performed on seven adult marmosets (Callithrix jacchus) bred in a closed colony. The marmosets were rendered parkinsonian by subcutaneous injection of 2 mg/kg MPTP for 5 consecutive days. The marmosets were allowed to recover for 18 weeks until their parkinsonism became stable. The degree of activity and disability before and after MPTP treatment was assessed using a combination of scales that measure locomotor activity, mobility, bradykinesia and posture. Animals were treated with L-DOPA (12.5 mg/kg b.i.d. for 6 weeks) to prime them to elicit dyskinesia.
(§3) All drugs were administered orally in a volume of 5 ml/kg via a syringe in the animal's home cage. The animals were immediately transferred to the experimental cage (60 cm×55 cm×75 cm, with the perch 25 cm from floor of cage) for behavioural assessment. Vehicle was apple juice in all cases.
3)Dyskinesia—non-parametric measures based on the following scale Dyskinesia score: 0=Absent, 1=Mild, fleeting, 2=Moderate, not interfering with normal activity, 3=Marked, at times interfering with normal activity, 4=Severe, continuous, replacing normal activity.
Behaviour was assessed for 6 hours post drug administration. Behavioural test 1, activity, was assessed every 5 minutes for 6 hours post drug administration. Behavioural tests 2 and 3, parkinsonian disability and dyskinesia, respectively, were assessed for 10 minutes every 30 minutes over the course of 6 hours, by post hoc analysis of video-recordings by an observer blinded to the treatment. The score given in each 10 minutes time period represents the maximum score achieved during that time period.
Table 1 outlines the randomised treatment schedule i.e. three doses of levetiracetam drug in combination with a single dose of L-DOPA. The actions of each of these three combination therapies were compared with that of L-DOPA plus the appropriate vehicle. Thus, a total of four treatments were given.

For experiment [2] the test system is unchanged. Nature of the experiment: Parkinsonian disability score with L-DOPA, MPTP-lesioned marmoset (Example 1). The experiment is classed as in vivo, marmosets (Callithrix jacchus). The conditions noted are these: for Disability scores: levetiracetam 13, 30 and 60 mg/kg + L-DOPA 12 mg/kg, p>0.05. On the procedure: as §1, §2, §3
2) Parkinsonian disability—non-parametric measures based on the following scales
a) Range of movement score: 0=no movement, 1=movement of head on the floor of the cage, 2=movement of limbs, but no locomotion, on the floor of the cage, 3=movement of head or trunk on wall of cage or perch, 4=movement of limbs, but no locomotion, on wall of cage or perch, 5=walking around floor of cage or eating from hopper on floor, 6=hopping on floor of cage, 7=climbing onto wall of cage or perch, 8=climbing up and down the walls of the cage or along perch, 9=running, jumping, climbing between cage walls/perch/roof, uses limbs through a wide range of motion and activity.
b) Bradykinesia score: 0=normal speed and initiation of movement, 1=mild slowing of movement, 2=moderate slowing, difficulty initiating and maintaining movement, marked freezing, 3=akinetic, unable to move, with prolonged freezing episodes
c) Postural abnormality score: 0=normal, upright, holds head up, normal balance, 1=abnormal, crouched, face down, may lose balance. […]
Behaviour was assessed for 6 hours post drug administration. Behavioural test 1, activity, was assessed every 5 minutes for 6 hours post drug administration. Behavioural tests 2 and 3, parkinsonian disability and dyskinesia, respectively, were assessed for 10 minutes every 30 minutes over the course of 6 hours, by post hoc analysis of video-recordings by an observer blinded to the treatment. […]

Consider `CC[C@@H](C(N)=O)N1CCCC1=O` [levetiracetam, (S)-α-ethyl-2-oxo-1-pyrrolidineacetamide], for which the Dyskinesia result is “significantly reduced” in experiment [1] (levetiracetam 13 mg/kg + L-DOPA 12 mg/kg oral, p<0.01); “significantly reduced” in experiment [1] (levetiracetam 30 mg/kg + L-DOPA 12 mg/kg oral, p<0.05); “significantly reduced” in experiment [1] (levetiracetam 60 mg/kg + L-DOPA 12 mg/kg oral, p<0.01). Further, in experiment [1] (levetiracetam 13, 30 and 60 mg/kg + L-DOPA 12 mg/kg, any time-point after one hour post drug administration, p>0.05), the Dyskinesia scores result is recorded as “no significant differences”. The Disability scores result in experiment [2] (any time-point after one hour post drug administration) and in experiment [2] (first hour post drug administration) was “no significant differences” throughout. In experiment [2] (levetiracetam 13 to 60 mg/kg + L-DOPA 12 mg/kg), the “Reversal of parkinsonian symptoms at peak effect, compared with L-DOPA monotherapy” value was “same magnitude”.
